Test results taken from US8143241B2, “DNA damage repair inhibitors for treatment of cancer” (Kudos Pharmaceuticals Limited, priority 2003, dated 2012).

How the values were obtained:
[1] = test system: pSUPER-CFP-CONTROL transfected HeLa cells; assay: Clonogenic survival, control transfected HeLa cells; format: cell-based, human; conditions: constant exposure 12-14 days, read-out: SF50 (the source's name)
Description: (§1) Clonogenic survival curves of transfected HeLa cells under constant exposure to a range of concentrations of PARP inhibitor (KU0058684) for 12-14 days. […] SF50 for pSUPER-CFP-CONTROL transfected cells is >1×10^−5 M and is 1×10^−6 M for pSUPER-CFP-17/19/23 transfected cells.
(§2) HeLa cells were transfected using FuGene (Roche, USA) according to the manufacturers instructions. For clonogenic survival assays, cells were co-transfected in 6 well plates with pSUPER and a vector expressing blasticidin resistance (pEF-Bsd, Invitrogen, USA) at a ratio of 10:1 (pSUPER: pEF-Bsd). Twenty-four hours after transfection, cells were plated into replica plates and this was followed by treatment with PARP inhibitors and blasticidin 48 hours post transfection.

[2] = test system: Brca1 or Brca2 deficient cells; assay: Rad51 focus formation, Brca1 or Brca2 deficient ES cells; format: cell-based, mouse; conditions: 48 hours
Protocol: (§3) ES cells were cultured for 48 h in various concentrations of PARP inhibitor fixed in 4% paraformaldehyde in PBS and permeabilised with 0.2% Triton X100 in PBS. Cells were stained with a 1:100 dilution of rabbit anti-Rad51 ployclonal antibody (Ab 551922, BD-Pharmingen, Oxford, UK). After washing, the primary antibody was visualised with Alexa Fluor-555 goat anti-rabbit IgG (Alexa) and nuclei with TO-PRO-3 iodide (Molecular Probes). Rad51 foci and γH2Ax foci were visualised with and quantified using a Leica TCS-SP2 confocal microscope.
(§4) Wild-type, and Brca1 and Brca2 defective ES cells were exposed to differing concentrations of KU0058684 for 48 hours. Cells were then fixed and stained for RAD51 foci as described by Tarsounas (Tarsounas M et al Oncogene. 2003 22(8): 1115-23).

[3] = test system: Fancd2−/−, Fanca−/−, Fancc−/− and Fanca−/−c−/− fibroblasts; assay: Clonogenic survival, Fanconi anaemia mouse fibroblasts; format: cell-based; conditions: continuous exposure 12-14 days
Protocol: Mouse fibroblasts from wild-type, Fancd2^−/−, Fanca^−/−, Fancc^−/− and Fanca^−/−c^−/− animals were obtained from the Fanconi Anaemia Cell Repository, Oregon Health and Science University. These cells were maintained in DMEM, supplemented with FCS (10% v/v), glutamine and antibiotics. RAD54 and RAD52 Embryonic Stem (ES) cells were grown in DMEM, supplemented with FCS (15% v/v), glutamine, antibiotics, non-essential amino acids, 2-mercaptoethanol and Leukemia inhibitory Factor. HeLa cells (CCL-2) were obtained from ATCC (USA) and were maintained in DMEM, supplemented with FCS (10% v/v), glutamine and antibiotics.
For measurement of sensitivity to chemical inhibitors, cell cultures e.g. ES cells or mouse embryonic fibroblasts, in exponential growth were trypsinised and seeded at various densities in 6-well plates onto confluent monolayer of Mitomycin C (MMC) inactivated mouse embryonic fibroblasts and, where appropriate, treated with inhibitors after 18 h. For continuous exposure, cells were re-fed every 4 days with fresh medium and inhibitor. For timed exposures, inhibitor was added for the specified period then cells were washed and re-fed with fresh medium. After 10-14 days, cells were washed with PBS, fixed in methanol and stained with crystal violet. Colonies containing greater than approximately 50 cells were counted. Experiments were performed at least three times in triplicate.

tankyrase = conditions: at concentrations up to 1 μM
[4] = test system: Brca2 deficient ES cell derived tumours; assay: ES cell xenografts (teratomas) in athymic BALB/c nude mice; format: in vivo, mouse; conditions: 15 mg/kg intraperitoneal, two doses per day
Protocol: ES cell derived tumours (teratomas) were produced by subcutaneous injection of […] ES cells into 6-8 week athymic BALB/c nude (nu/nu) mice. Twenty mice were injected with Brca2 deficient ES cells and an identical cohort with isogenic wild type cells. Two days after cell injection, treatment with KU0058684 or vehicle was initiated. For three consecutive days, two Intraperitoneal doses of KU0058684 (or vehicle) were administered, six hour apart, each at a dosage of 15 mg/kg animal. This treatment was then stopped for five days and then reinitiated (as before) for another three consecutive days. Growth of tumours was monitored from a minimum volume of 0.3 cm^3. The data in FIG. 16 represents two separate experiments involving in total 40 animals.

PARP-2 = PARP-2 (Homo sapiens, UniProt Q9UGN5); assay: Inhibition of poly(ADP-ribose) polymerase activity of PARP-2; format: biochemical
[5] = test system: Brca1 and Brca2 wild type and mutant ES cells; assay: FACS analysis of cell cycle arrest (DNA content, phospho-histone H3); format: cell-based, mouse
Protocol: For DNA content measurement, cells were fixed in 70% ethanol, incubated with Rnase A and propidium iodide (PI) and analysed with a FACSCalibur (Becton Dickinson). For phospho-Histone H3 analysis, cells were fixed in 70% ethanol, permeabilised with 0.25% triton X-100, incubated with anti-phospho-histone H3 antibody (Upstate Biotechnology) for 3 hours, and then with FITC-anti rabbit IgG (Serotec) for 30 minutes.
Cells were exposed with KU0058684 for various periods then labelled with BrdU and the proportion of cells in each phase of the cell cycle. […] To further characterise this arrest, cells were analysed for both DNA content and for phosphorylated Histone H3, an M phase marker. […]

wild-type ES cells = assay: Rad51 focus formation, wild-type ES cells; format: cell-based, mouse; conditions: 48 hours
Protocol: as §3, §4

[6] = test system: RAD51 siRNA transfected HeLa cells; assay: Clonogenic survival, HeLa cells with RAD51 RNAi silencing; format: cell-based, human; conditions: pSUPER-CFP-17/19/23 transfected HeLa cells, constant exposure 12-14 days; read-out: SF50 (the source's name)
Description: as §1, §2

PARP-3 = PARP-3 (Homo sapiens, UniProt Q9Y6F1); assay: Selectivity: PARP-3 inhibition; format: biochemical; conditions: at concentrations up to 1 μM
[7] = test system: Brca2 deficient VC8 cells; assay: Neutral comet assay, Brca2 deficient VC8 cells; format: cell-based, chinese hamster; conditions: 30-hour exposure to 1 μM
Protocol: VC8 and VC8-BAC cells were plated 24 hours prior to treatment with 1 μM KU0058684 for 30 hours. All further work was carried out in the dark. Cells were washed with and scraped into PBS prior to Comet analysis as described (Lemay and Wood, 1999). Cells suspended in LMP agarose (0.5% in PBS) were spread onto Comet slides (Trevigen, Gaithersburg) and placed at 4 C until set, prior to lysis for 45 mins in 2.5M NaCl, 100 mM EDTA, 10 mM Tris Base, 1% sodium lauryl sarcosinate, 0.01% Triton X-100. Slides were transferred to TBE for 5 mins prior to electrophoresis at 18V for 15 mins. Slides were then fixed in 100% ethanol for 5 mins and air dried before the addition of SYBR green dye and visualisation by epifluorescence using fluorescien filters (Nikon). Comets were analysed using the Comet software module of the Lucia G imaging package as supplied by Nikon. 50 comets per data point were examined for each of three independent experiments and the mean tail moment calculated.

PARP-3, sequence (Q9Y6F1 whole entry, species assumed): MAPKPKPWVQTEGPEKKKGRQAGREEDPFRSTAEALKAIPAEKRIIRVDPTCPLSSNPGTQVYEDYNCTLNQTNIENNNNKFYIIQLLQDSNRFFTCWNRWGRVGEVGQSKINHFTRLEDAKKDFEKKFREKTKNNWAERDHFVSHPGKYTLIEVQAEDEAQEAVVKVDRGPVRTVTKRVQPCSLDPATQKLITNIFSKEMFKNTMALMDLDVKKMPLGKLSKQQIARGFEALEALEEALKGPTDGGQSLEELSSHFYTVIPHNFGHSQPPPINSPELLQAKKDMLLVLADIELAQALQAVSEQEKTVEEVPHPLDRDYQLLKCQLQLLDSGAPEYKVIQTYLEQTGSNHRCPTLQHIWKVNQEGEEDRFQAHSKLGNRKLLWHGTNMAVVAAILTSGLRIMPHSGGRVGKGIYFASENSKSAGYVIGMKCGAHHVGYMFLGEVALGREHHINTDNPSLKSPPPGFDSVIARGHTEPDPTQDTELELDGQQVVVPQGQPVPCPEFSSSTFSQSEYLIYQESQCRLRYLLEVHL
PARP-2, sequence (Q9UGN5 whole entry): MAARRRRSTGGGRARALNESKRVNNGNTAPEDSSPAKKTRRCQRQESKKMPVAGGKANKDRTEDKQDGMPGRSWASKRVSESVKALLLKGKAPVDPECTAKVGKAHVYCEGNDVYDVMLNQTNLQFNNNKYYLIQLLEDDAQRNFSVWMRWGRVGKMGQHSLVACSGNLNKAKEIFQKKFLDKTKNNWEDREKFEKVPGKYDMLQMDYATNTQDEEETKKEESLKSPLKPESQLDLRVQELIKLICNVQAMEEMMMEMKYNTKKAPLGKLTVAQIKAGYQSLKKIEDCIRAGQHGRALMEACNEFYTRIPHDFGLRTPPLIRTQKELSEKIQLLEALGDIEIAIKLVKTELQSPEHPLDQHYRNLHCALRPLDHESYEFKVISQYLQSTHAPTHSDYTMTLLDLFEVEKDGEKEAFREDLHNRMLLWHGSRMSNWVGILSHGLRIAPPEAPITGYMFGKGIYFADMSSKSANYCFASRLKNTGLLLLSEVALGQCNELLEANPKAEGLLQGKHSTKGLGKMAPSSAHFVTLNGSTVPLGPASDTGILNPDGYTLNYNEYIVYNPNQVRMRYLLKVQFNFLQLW

O=C1CCC(=O)N1c1cc(Cc2n[nH]c(=O)c3ccccc23)ccc1F [KU0058684]
IC50 [1]: > 10000 nM | Rad51 foci formation [2]: no foci were induced | sensitivity of FA gene deficient fibroblasts compared to wild-type cells [3]: results in sensitivity | inhibition of tankyrase (tankyrase): do not inhibit | growth of Brca2 deficient tumours relative to wild-type tumours [4]: dramatically reduce the growth | inhibition of poly(ADP-ribose) polymerase activity of PARP-1 and PARP-2 (PARP-2): potent and specific inhibitors | cell cycle arrest (DNA content, FACS) [5]: profound arrest of cells with a tetraploid DNA content | phase of arrest (phospho-histone H3 labelling) [5]: majority of cells were arrested in G2 | Rad51 foci formation (wild-type ES cells): caused Rad51 foci formation in a dose-dependent fashion | IC50 [6]: 1000 nM | inhibition of PARP-3 (PARP-3): do not inhibit | increase in the tail moment [7]: 4.7 fold
